What was measured:
HepG2 cells [1] = test: lipid ROS (BODIPY 581/591 C11, flow cytometry); type: cell-based, human; details: 24 h; for accumulation of lipid ROS in HepG2 cells: up to 15 μM
Method: (§1) To detect lipid peroxidation upon treatment with CH004, HepG2 cells or mouse embryonic fibroblasts (MEF) were seeded in 12-well plates with ~ 1.8 × 10^5 cells per well for 24 h. After treatment with the inhibitor for another 24 h, cells were stained with BODIPY® 581/591 C11 (Invitrogen) for 1 h at a final concentration of 2 μM at 37 °C[57]. The cells were then resuspended in an appropriate amount of PBS after being washed once with PBS. Lipid peroxidation, i.e., lipid ROS, was analyzed by detection of the fluorescence using an LSR Fortessa flow cytometer. The data were recorded at 530/30 nm (green fluorescent) and 670/30 nm (red fluorescent) wavelengths after excitation at 488 nm. A minimum of 20000 events was used for the analysis. All the experiments were independently repeated twice in triplicate.
Figure S15. The mode of actions for CH004 in cells. […] Indicated HEK293T stable cell lines were treated with CH004 at a concentration of 10 µM for 24 h, and the cell viability was then measured using the CellTiter96® Aqueous One Solution Cell Proliferation Assay (Promega). Means ± SDs (n=3). (B-C) CH004 or erastin triggers ferroptosis in mouse embryonic fibroblasts (MEF). WT MEF cells were treated with CH004 or erastin at indicated concentrations in the presence or the absence of 500 µM DFO for 24 h before measuring the lipid ROS with 2 μM BODIPY® 581/591 C11 (Materials and methods). […] Erastin at micromolar concentrations were incubated with HepG2 cells for 24 h before measuring the lipid ROS (see above and Materials and methods). […] Means ± SDs (n=3). […] CH004 or erastin at a concentration of 20 µM was incubated with HepG2 cells for 48 h or 72 h in the presence or the absence of 100 µM DFO. The cell viability was accordingly quantified using the CellTiter96® Aqueous One Solution Cell Proliferation Assay (Promega) and the results were shown as percentages of DMSO (control, 100%). Means ± SDs (n=3). All the experiments were independently repeated at least twice and one representative result is present. Table S1 The inhibitory effects of CH004 on purified hCBS, hCSE and hDDC.

HepG2 cells [2] = test: rescue of CH004-induced loss of viability by cell death inhibitors (CellTiter 96); type: cell-based, human; details: 100 µM DFO, 48 h or 72 h
Method: To measure cell viability and cytotoxicity, HepG2, HEK293T, Huh-7, H22, Panc-28, HCT116 and MDA-MB-231 cells were seeded at a density of ~ 2 × 10^4 cells per well in 96-well plates (Coring, NY, USA) for one day, followed by incubation with DMSO or various concentrations of tested compound for indicated times. Then, the cells were collected to measure the cell viability using the CellTiter 96® Aqueous One Solution Cell Proliferation Assay (Promega, G3581) according to the standard protocols.
(§2) Figure S15. The mode of actions for CH004 in cells. […] Indicated HEK293T stable cell lines were treated with CH004 at a concentration of 10 µM for 24 h, and the cell viability was then measured using the CellTiter96® Aqueous One Solution Cell Proliferation Assay (Promega). Means ± SDs (n=3). (B-C) CH004 or erastin triggers ferroptosis in mouse embryonic fibroblasts (MEF). WT MEF cells were treated with CH004 or erastin at indicated concentrations in the presence or the absence of 500 µM DFO for 24 h before measuring the lipid ROS with 2 μM BODIPY® 581/591 C11 (Materials and methods). […] The cell viability was accordingly quantified using the CellTiter96® Aqueous One Solution Cell Proliferation Assay (Promega) and the results were shown as percentages of DMSO (control, 100%). […]

[3] = test system: mouse embryonic fibroblasts (MEF); test: lipid ROS (BODIPY 581/591 C11, flow cytometry); type: cell-based; details: low micromolar concentrations, 24 h
Method: as §1
as §2, with “(MEF).” for “(MEF). WT MEF cells were treated with CH004 or erastin at indicated concentrations in the presence or the absence of 500 µM DFO for 24 h before measuring the lipid ROS with 2 μM BODIPY® 581/591 C11 (Materials and methods).”

HepG2 cells [4] = test: cell viability (CellTiter 96 Aqueous One); type: cell-based, human; details: 20 μM, 48 h or 72 h
Method: Fig. 4 CH004 arrests the cell cycle at the S phase. a CH004 reduces the cell viability of HEK293T and HepG2 cells. HEK293T or HepG2 cells were treated with indicated concentrations of CH004 for 24 h before the cell number was analyzed using the CellTiter96® Aqueous One Solution Cell Proliferation Assay (Promega, Materials and Methods). The means at each concentration of one representative experiment are shown as percentages of DMSO (control, 100%). Means ± SDs (n = 3). b Overexpression of hCBS or knock-down of hCBS counteracts the growth inhibition exerted by CH004 in HEK293T cells. Indicated HEK293T stable cell lines were treated with the CH004 or DMSO for 24 h. Then, the cell viability was quantified with the CellTiter 96® Aqueous One Solution Cell Proliferation Assay under the standard protocol (Promega). The means at each concentration are shown as percentages of their respective DMSO controls (100%). Means ± SDs (n = 3). The efficacy for CBS overexpression and knock-down in HEK293T cells was determined by Western blotting using an anti-CBS antibody (3E1, 1:2000; Abnova). c CH004 induces cell death in HEK293T and HepG2 cells. […] The means of percentages of dead cells (DMSO, 100%) from three independent samples are shown in d. Means ± SDs (n = 3). e, f Pharmacological inhibition or genetic knock-down of hCBS in HEK293T cells arrests the cell cycle at S phase. HEK293T cells were incubated with indicated compounds for 12 h, and the DNA content was quantified with propidium iodide to analyze the cell cycle distribution by flow cytometry (e). The cell cycle distributions for HEK293T-shNT and HEK293T-shCBS cells were accordingly analyzed and are shown in f. One representative diagram is shown for each condition. The mean percentages of various cell phases from three independent samples are shown in the respective right panels. Means ± SDs (n = 3). […]
Figure S15. […] Indicated HEK293T stable cell lines were treated with CH004 at a concentration of 10 µM for 24 h, and the cell viability was then measured using the CellTiter96® Aqueous One Solution Cell Proliferation Assay (Promega). […]

Row | Structure (SMILES) | reduction of lipid ROS caused by 10 μM CH004 (HepG2 cells [1]; 500 μM deferoxamine, HepG2) | rescue of cell death caused by 20 µM CH004 (HepG2 cells [2]) | induction of ferroptosis (lipid ROS) in MEF [3] | cell death in HepG2 cells (HepG2 cells [4]) | accumulation of lipid ROS in HepG2 cells (HepG2 cells [1]) | accumulation of lipid ROS in HepG2 cells (HepG2 cells [1]; listed as Erastin)
1 | CC(=O)N(O)CCCCCNC(=O)CCC(=O)N(O)CCCCCNC(=O)CCC(=O)N(O)CCCCCN [deferoxamine] | almost completely reduced | partially rescues |  |  |  | 
2 | CCOc1ccccc1-n1c(C(C)N2CCN(C(=O)COc3ccc(Cl)cc3)CC2)nc2ccccc2c1=O (stereo not drawn) [erastin, reference compound] |  |  | ~ 3 fold | did not trigger | did not trigger | does not induce ferroptosis
